Results taken from PMC11121064 (International Journal of Molecular Sciences, 2024).

Assays:
[1] = test system: melanoma A375 tumor cell line; test: MTT reduction assay, A375 melanoma cells; assay type: cell-based, human; conditions: for effect on A375 cell viability: 72 h of exposure; for IC50: MTT, 72 h
Experimental: (§1) The cytotoxic activity was measured against the melanoma A375 tumor cell line (ECACC) and the human BJ fibroblast cell line (ATCC) using an MTT reduction assay. The selectivity index (SI) was calculated using the following formula: SI = IC50 (BJ)/ IC50 (A375).
The A375 cell line was purchased from the European Collection of Authenticated Cell Cultures (ECACC, Salisbury, UK) and the BJ human fibroblast cell line from the American Type Culture Collection (ATCC, Manassas, VA, USA). All the cell lines were grown as a monolayer in standard conditions: 37 °C, 100% humidity, under an atmosphere of 5% CO2. […] The BJ cell line was grown in EMEM with EBSS, NEAA and sodium pyruvate with L-Glutamine supplemented, 10% fetal bovine serum and 50 IU/mL penicillin/streptomycin.
(§2) Next, the cells were seeded in 96-well plates at a density of 5000 cells per well and incubated overnight to reach the logarithmic growth phase. […] After 72 h, 10 µL of MTT solution (5 g/L) was added into each well and incubated for an additional four hours. Subsequently, the medium was removed, and 100 µL of dimethyl sulfoxide (DMSO) was added into each well. The absorbance was then measured at 570 nm using a SPECTROstar Nano microplate reader (BMG Biotech Inc., Cary, NC, USA)/Tecan Spark 10M. The mean value from three independent BJ and A375 cell cultures was taken to calculate the cell viability, expressed as a percentage of the control values, i.e., untreated cells assumed as 100%.

[2] = test system: human BJ fibroblast cell line; test: MTT reduction assay, BJ fibroblasts; assay type: cell-based; conditions: 72 h
Experimental: as §1
The A375 cell line was purchased from the European Collection of Authenticated Cell Cultures (ECACC, Salisbury, UK) and the BJ human fibroblast cell line from the American Type Culture Collection (ATCC, Manassas, VA, USA). All the cell lines were grown as a monolayer in standard conditions: 37 °C, 100% humidity, under an atmosphere of 5% CO2. The A375 cells were cultured in Dulbecco’s Modified Eagle Medium supplemented with 15% fetal calf serum and 50 IU/mL penicillin/streptomycin. The BJ cell line was grown in EMEM with EBSS, NEAA and sodium pyruvate with L-Glutamine supplemented, 10% fetal bovine serum and 50 IU/mL penicillin/streptomycin.
as §2

[3] = test system: clot formation and fibrinolysis in human citrate plasma; test: Clot formation and fibrinolysis test (CL-test); conditions: for CLAUC overall potential for clot formation and fibrinolysis / Fmax maximum clotting / Fvo initial plasma clotting velocity / Lmax maximum lysis / Lvo initial clot fibrinolysis velocity / Sc area under the curve of stable clot formation / Sf area under the fibrinolysis curve / Sr area under the clot formation curve / Tc clot stabilization time / Tf plasma clotting time / Tl fibrinolysis time / Tt thrombin time: mean, n = 3
Experimental: Following this, the impact of the tested complex compounds and their ligands on the overall clot formation and fibrinolysis potential (CLAUC) and individual kinetic parameters was assessed using the CL-test. The analysis was performed using plasma from three different donors.
The blood samples used were residual materials from routine diagnostic studies, destined for disposal as medical waste. […] Platelet-poor plasma (PPP) and red blood cells were obtained using centrifugation at 3000× g for 10 min at room temperature using a Mikro 22R centrifuge (Hettich Zentrifugen, Tuttlingen, Germany). The plasma was used for the hemostasis tests. Before use, the centrifuged erythrocyte mass was washed three times with physiological saline solution to remove the plasma protein residues and other blood cells.
The influence of the compounds on the overall hemostasis potential was determined using the CL-test through continuous measurement of changes in optical transmittance, as described previously [53, 54]. The experiments were conducted using three-fold diluted human citrate plasma, t-PA and thrombin. […] The results are presented as means ± SD (n = 3). The curves were used to determine the kinetic parameters of clot formation, stabilization and fibrinolysis using dedicated software [51]. The following parameters of clot formation were determined: Tt—thrombin time (s), Fmax—maximum clotting (%T), Tf—plasma clotting time (s), Fvo—initial plasma clotting velocity (%T/min), Sr—area under the clot formation curve (%Txmin). The parameters of the clot stabilization phase comprised Tc—clot stabilization time (s) and Sc—area under the curve of stable clot formation (%Txmin). The parameters of fibrinolysis comprised Lmax—maximum lysis (%T), Tl—fibrinolysis time (s), Lvo—initial clot fibrinolysis velocity (%T/min) and Sf—area under the fibrinolysis curve (%Txmin). Additionally, the overall potential for clot formation and fibrinolysis, i.e., CLAUC (%Txmin), was also estimated.

[4] = test system: extrinsic coagulation pathway; test: Prothrombin time (PT) and INR in human citrated plasma; conditions: up to 100 µmol/L; reference PT 9.7–14.6 s, INR 0.8–1.2
Experimental: The first stage assessed the changes in plasma hemostasis occurring under the influence of the five test compounds. Plasma was incubated with the tested compounds and ligands at six different concentrations ranging from 0.5 to 100 µmol/L. The plasma was obtained from five different volunteers. To evaluate the impact on the extrinsic coagulation pathway, the prothrombin time (PT) was determined in human citrated plasma, expressed in seconds and as the international normalized ratio (INR) (Figure 6 and Figure 7).
The plasma was used for the hemostasis tests.
The results are presented as means ± standard deviation (SD).

N.N.[Cl][Pt][Cl] [Cisplatin, cisplatin]
effect on A375 cell viability [1]: dose-dependent cytotoxic effect | IC50 [1]: 8.5 ± 0.3 µM | IC50 [2]: 24 ± 0.8 µM

Clc1ccc(COC(Cn2ccnc2)c2ccc(Cl)cc2Cl)c(Cl)c1 (stereo not drawn) [MCZ, miconazole]
effect on A375 cell viability [1]: dose-dependent reduction

Cc1ncc([N+](=O)[O-])n1CCO [MTZ, metronidazole]
IC50 ([1]; Homo sapiens, A-375): > 100 µM | IC50 ([2]; Homo sapiens, Fibroblast): > 100 µM | effect on CLAUC and kinetic parameters of clot formation and lysis ([3]; entire concentration range 0.5–100 µmol/L): no significant differences

Cc1ncc([N+](=O)[O-])n1CCO.Cc1ncc([N+](=O)[O-])n1CCO.O=[N+]([O-])[O-].[Ag+] [[(MTZ)2AgNO3]]
IC50 [1]: 3 ± 0.3 µM | IC50 [2]: 46 ± 1.6 µM | prolongation of PT and INR beyond the reference range [4]: do not cause pathological prolongation | CLAUC overall potential for clot formation and fibrinolysis ([3]; 0.5 µmol/L): 287.9 %*min | Fmax maximum clotting ([3]; 0.5 µmol/L): 64.4% | Fvo initial plasma clotting velocity ([3]; 0.5 µmol/L): 126.7 %/min | Lmax maximum lysis ([3]; 0.5 µmol/L): 61.9% | Lvo initial clot fibrinolysis velocity ([3]; 0.5 µmol/L): 20.9 %/min | Sc area under the curve of stable clot formation ([3]; 0.5 µmol/L): 118.4 %*min | Sf area under the fibrinolysis curve ([3]; 0.5 µmol/L): 125.5 %*min | Sr area under the clot formation curve ([3]; 0.5 µmol/L): 44.1 %*min | Tc clot stabilization time ([3]; 0.5 µmol/L): 114.3 s | Tf plasma clotting time ([3]; 0.5 µmol/L): 61.9 s | Tl fibrinolysis time ([3]; 0.5 µmol/L): 158.7 s | Tt thrombin time ([3]; 0.5 µmol/L): 21.3 s | CLAUC overall potential for clot formation and fibrinolysis ([3]; 1.0 µmol/L): 275.7 %*min | Fmax maximum clotting ([3]; 1.0 µmol/L): 62.2% | Fvo initial plasma clotting velocity ([3]; 1.0 µmol/L): 126.3 %/min | Lmax maximum lysis ([3]; 1.0 µmol/L): 61.5% | Lvo initial clot fibrinolysis velocity ([3]; 1.0 µmol/L): 19.5 %/min | Sc area under the curve of stable clot formation ([3]; 1.0 µmol/L): 125.5 %*min | Sf area under the fibrinolysis curve ([3]; 1.0 µmol/L): 105.1 %*min | Sr area under the clot formation curve ([3]; 1.0 µmol/L): 45.1 %*min | Tc clot stabilization time ([3]; 1.0 µmol/L): 124.7 s | Tf plasma clotting time ([3]; 1.0 µmol/L): 65.9 s | Tl fibrinolysis time ([3]; 1.0 µmol/L): 175.0 s | Tt thrombin time ([3]; 1.0 µmol/L): 21.6 s | CLAUC overall potential for clot formation and fibrinolysis ([3]; 5.0 µmol/L): 343.6 %*min | Fmax maximum clotting ([3]; 5.0 µmol/L): 70.7% | Fvo initial plasma clotting velocity ([3]; 5.0 µmol/L): 157.7 %/min | Lmax maximum lysis ([3]; 5.0 µmol/L): 70.5% | Lvo initial clot fibrinolysis velocity ([3]; 5.0 µmol/L): 21.9 %/min | Sc area under the curve of stable clot formation ([3]; 5.0 µmol/L): 169.8 %*min | Sf area under the fibrinolysis curve ([3]; 5.0 µmol/L): 129.1 %*min | Sr area under the clot formation curve ([3]; 5.0 µmol/L): 44.7 %*min | Tc clot stabilization time ([3]; 5.0 µmol/L): 146.7 s | Tf plasma clotting time ([3]; 5.0 µmol/L): 59.4 s | Tl fibrinolysis time ([3]; 5.0 µmol/L): 199.0 s | Tt thrombin time ([3]; 5.0 µmol/L): 19.2 s | CLAUC overall potential for clot formation and fibrinolysis ([3]; 10.0 µmol/L): 284.4 %*min | Fmax maximum clotting ([3]; 10.0 µmol/L): 61.4% | Fvo initial plasma clotting velocity ([3]; 10.0 µmol/L): 121.6 %/min | Lmax maximum lysis ([3]; 10.0 µmol/L): 60.2% | Lvo initial clot fibrinolysis velocity ([3]; 10.0 µmol/L): 19.5 %/min | Sc area under the curve of stable clot formation ([3]; 10.0 µmol/L): 126.7 %*min | Sf area under the fibrinolysis curve ([3]; 10.0 µmol/L): 117.2 %*min | Sr area under the clot formation curve ([3]; 10.0 µmol/L): 40.5 %*min | Tc clot stabilization time ([3]; 10.0 µmol/L): 126.7 s | Tf plasma clotting time ([3]; 10.0 µmol/L): 62.3 s | Tl fibrinolysis time ([3]; 10.0 µmol/L): 180.3 s | Tt thrombin time ([3]; 10.0 µmol/L): 23.3 s | CLAUC overall potential for clot formation and fibrinolysis ([3]; 50.0 µmol/L): 280.7 %*min | Fmax maximum clotting ([3]; 50.0 µmol/L): 63.8% | Fvo initial plasma clotting velocity ([3]; 50.0 µmol/L): 129.0 %/min | Lmax maximum lysis ([3]; 50.0 µmol/L): 61.8% | Lvo initial clot fibrinolysis velocity ([3]; 50.0 µmol/L): 22.0 %/min | Sc area under the curve of stable clot formation ([3]; 50.0 µmol/L): 123.25 %*min | Sf area under the fibrinolysis curve ([3]; 50.0 µmol/L): 118.6 %*min | Sr area under the clot formation curve ([3]; 50.0 µmol/L): 38.9 %*min | Tc clot stabilization time ([3]; 50.0 µmol/L): 119.3 s | Tf plasma clotting time ([3]; 50.0 µmol/L): 56.9 s | Tl fibrinolysis time ([3]; 50.0 µmol/L): 164.7 s | Tt thrombin time ([3]; 50.0 µmol/L): 22.5 s | CLAUC overall potential for clot formation and fibrinolysis ([3]; 100.0 µmol/L): 318.6 %*min | Fmax maximum clotting ([3]; 100.0 µmol/L): 68.6% | Fvo initial plasma clotting velocity ([3]; 100.0 µmol/L): 124.9 %/min | Lmax maximum lysis ([3]; 100.0 µmol/L): 67.2% | Lvo initial clot fibrinolysis velocity ([3]; 100.0 µmol/L): 29.6 %/min | Sc area under the curve of stable clot formation ([3]; 100.0 µmol/L): 146.3 %*min | Sf area under the fibrinolysis curve ([3]; 100.0 µmol/L): 131.8 %*min | Sr area under the clot formation curve ([3]; 100.0 µmol/L): 40.4 %*min | Tc clot stabilization time ([3]; 100.0 µmol/L): 131.3 s | Tf plasma clotting time ([3]; 100.0 µmol/L): 59.2 s | Tl fibrinolysis time ([3]; 100.0 µmol/L): 188.7 s | Tt thrombin time ([3]; 100.0 µmol/L): 22.4 s

Clc1ccc(COC(Cn2ccnc2)c2ccc(Cl)cc2Cl)c(Cl)c1.Clc1ccc(COC(Cn2ccnc2)c2ccc(Cl)cc2Cl)c(Cl)c1.[Ag+].[F][Sb-]([F])([F])([F])([F])[F] (stereo not drawn) [[Ag(MCZ)2SbF6]]
IC50 [1]: 18.5 ± 2.4 µM | IC50 [2]: 16 ± 0.9 µM
